A word on the logP: it is the decadic logarithm of the partition coefficient of the neutral form, usually between octanol and water.

Consider nine compounds from ChEMBL document CHEMBL1121932, “Structure-anti-Parkinson activity relationships in the aminoadamantanes. Influence of bridgehead substitution” (J Med Chem, 1982).

A short description of series [1]: Partition coefficient (logP). As to conditions: octanol/water. The format is physicochemical.
Series [2] has as its system Mus musculus. In words: Stimulation of spontaneous locomotor activity of compound was measured in mice at a dose of 0.05 mmol/kg). Further details: unit not given here. The format is functional.
The subject of series [3] is Mus musculus. In words: Stimulation of spontaneous locomotor activity of compound was measured in mice at a dose of 0.1 mmol/kg). In kind it is functional.
The subject of series [4] is Mus musculus. In words: Modification of circling behavior in mice with unilateral striatal lesions produced by 6-hydroxydopamine injection was measured at a dose of 0.1 mmol/kg. In kind it is functional.
Series [5] concerns Mus musculus. In words: Stimulation of spontaneous locomotor activity of compound was measured in mice at a dose of 0.2 mmol/kg). The format is functional.
The subject of series [6] is Mus musculus. In words: Stimulation of spontaneous locomotor activity of compound was measured in mice at a dose of 0.4 mmol/kg); Lethal. The format is functional, organism-based.
Series [7] has as its system Mus musculus. In words: Stimulation of spontaneous locomotor activity of compound was measured in mice at a dose of 0.025 mmol/kg). In kind it is functional. The arrangement: unit not given here.
The test system of series [8] is Mus musculus. Briefly: Modification of circling behavior in mice with unilateral striatal lesions produced by 6-hydroxydopamine injection was measured at a dose of 0.15 mmol/kg. The format is functional.
Series [9] relates to Mus musculus. Briefly: Stimulation of spontaneous locomotor activity of compound was measured in mice at a dose of 0.04 mmol/kg). The format is functional.
For series [10], the system named is Mus musculus. Briefly: Stimulation of spontaneous locomotor activity of compound was measured in mice at a dose of 0.01 mmol/kg). In kind it is functional.
Series [11] has as its system Mus musculus. Briefly: Stimulation of spontaneous locomotor activity of compound was measured in mice at a dose of 0.02 mmol/kg). In kind it is functional.
The test system of series [12] is Mus musculus. Briefly: Modification of circling behavior in mice with unilateral striatal lesions produced by 6-hydroxydopamine injection was measured at a dose of 0.027 mmol/kg. The format is functional.
Series [13] deals with Mus musculus. Briefly: Stimulation of spontaneous locomotor activity of compound was measured in mice at a dose of 0.10 mmol/kg). Further details: unit not given here. In kind it is functional.
The subject of series [14] is Mus musculus. Briefly: Stimulation of spontaneous locomotor activity of compound was measured in mice at a dose of 0.4 mmol/kg). In kind it is functional.
Series [15] concerns Mus musculus. Briefly: Modification of circling behavior in mice with unilateral striatal lesions produced by 6-hydroxydopamine injection was measured at a dose of 0.2 mmol/kg. The format is functional.
The subject of series [16] is Mus musculus. Briefly: Modification of circling behavior in mice with unilateral striatal lesions produced by 6-hydroxydopamine injection was measured at a dose of 0.013 mmol/kg. In kind it is functional.
Series [17] relates to Mus musculus. Briefly: Modification of circling behavior in mice with unilateral striatal lesions produced by 6-hydroxydopamine injection was measured at a dose of 0.10 mmol/kg. The format is functional.
Series [18] relates to Mus musculus. Briefly: Stimulation of spontaneous locomotor activity of compound was measured in mice at a dose of 0.20 mmol/kg). The format is functional.
Series [19] has as its system Mus musculus. In words: Modification of circling behavior in mice with unilateral striatal lesions produced by 6-hydroxydopamine injection was measured at a dose of 0.05 mmol/kg. In kind it is functional.
The test system of series [20] is Mus musculus. In words: Modification of circling behavior in mice with unilateral striatal lesions produced by 6-hydroxydopamine injection was measured at a dose of 0.20 mmol/kg. The format is functional.
Series [21] deals with Mus musculus. In words: Stimulation of spontaneous locomotor activity of compound was measured in mice at a dose of 0.0125 mmol/kg). The format is functional.
Series [22] relates to Mus musculus. In words: Stimulation of spontaneous locomotor activity of compound was measured in mice at a dose of 0.30 mmol/kg). The format is functional.
Series [23] relates to Mus musculus. Briefly: Stimulation of spontaneous locomotor activity of compound was measured in mice at a dose of 0.15 mmol/kg). In kind it is functional.

Consider `CC12CC3(C)CC(C)(C1)CC(N)(C2)C3`, for which, in [1], the logP amounted to 4.01. In addition, the Activity in the series on Mus musculus [2] is given as 264; in the series with Mus musculus [3], 351; in the series with Mus musculus [5], 472; in the series on Mus musculus [6] it was “Lethal”; in the series with Mus musculus [7], 148. Further, the Net turns/min in the series on Mus musculus [4] is recorded as 1; in the series on Mus musculus [8] it was 1.2.

Turning to `CC(N)Cc1ccccc1` (stereo not drawn) [AMPHETAMINE], the Activity in the series on Mus musculus [9] turned out to be 993; in the series with Mus musculus [10], 177; in the series on Mus musculus [11], 562. The Net turns/min in the series on Mus musculus [12] stood at 5.5.

`CC12CC3CC(C1)CC(N)(C3)C2` returned a lipophilicity (logP) in series [1] of 3.01. Moreover, the Activity is recorded as 37 in the series on Mus musculus [2], 144 in the series on Mus musculus [3] and 383 with Mus musculus [5].

With `CCCC12CC3CC(CC(N)(C3)C1)C2`, in series [1], the lipophilicity (logP) was found to be 3.76. The Activity worked out at 94 in the series on Mus musculus [13], 75 with Mus musculus [2] and 75 in the series on Mus musculus [7].

Regarding `NC12CC3CC(CC(C3)C1)C2` [AMANTADINE], in series [1], the lipophilicity (logP) worked out at 2.44. Besides, the Activity in the series on Mus musculus [2] came to 87; in the series with Mus musculus [14], 44; with Mus musculus [3], 201; in the series on Mus musculus [5], 243. In the series with Mus musculus [15], the Net turns/min is reported as 1.1.

In the case of `CN1CCc2cccc3c2[C@H]1Cc1ccc(O)c(O)c1-3` [APOMORPHINE], in the series with Mus musculus [16], the Net turns/min is given as 2.6.

`CCC12CC3CC(N)(C1)CC(CC)(C3)C2` returned a logP in [1] of 4.36. Moreover, the Activity in the series on Mus musculus [13] was determined as 716; in the series on Mus musculus [2] it was 383; in the series with Mus musculus [7], 154; with Mus musculus [18] it was 478. Also, the Net turns/min in the series on Mus musculus [17] is given as 1.6.

Take `CC12CC3CC(C)(C1)CC(N)(C3)C2` [MEMANTINE]: the Net turns/min in the series with Mus musculus [19] is 1; with Mus musculus [20] it was 2.6; in the series on Mus musculus [17], 2.6; in the series on Mus musculus [8], 4.3. The Activity in the series with Mus musculus [13] was determined as 916; in the series with Mus musculus [2], 377; in the series with Mus musculus [7], 264; in the series with Mus musculus [18] it was 1378; in the series with Mus musculus [21], 181.

Take `CCC12CC3CC(CC(N)(C3)C1)C2`: the logP in [1] was determined as 3.4. Also, the Activity in the series on Mus musculus [22] worked out at 368; with Mus musculus [13], 237; with Mus musculus [2], 147; in the series on Mus musculus [23], 432; in the series on Mus musculus [7], 61; in the series on Mus musculus [18], 522. Also, the Net turns/min with Mus musculus [19] worked out at 1.3; in the series on Mus musculus [20], 1.2; with Mus musculus [17], 1.2; with Mus musculus [8] it was 2.
